Patent publication US11136320B2, “Fused ring derivative used as FGFR4 inhibitor” (JACOBIO PHARMACEUTICALS CO., LTD., priority 2019, dated 2021)
Like-named read-outs stand apart in the source and are kept apart here.

Assay: PK/PD of NOD-SCID mouse (drug concentration in blood and in tumors)
Assay type: in vivo
Conditions: for AUC(0-inf) / Cmax / Tmax / half-life / AUC(0-t) / concentration at 4 h / concentration at 6 h: NOD-SCID, mouse, po, 50 mg/kg, p.o. (50 mg/kg); for AUC(0-inf) / Cmax / Tmax / half-life / AUC(0-t): plasma; for AUC(0-t): read-out: AUC0-6 h; for concentration at 4 h / concentration at 6 h: tumor
Description: This experiment conducted when the pharmacological experiment in vivo was performed by gavage administration, wherein, the blood samples and tumor samples were taken at different time points to detect drug concentration in blood and drug concentrations in tumors.
(1) Mode of administration: gavage administration;
(2) Dosage: 50 mg/kg in the gavage administration;
Three mice were sampled at each sampling point;
(4) Blood sample collection: 200 μL of orbital blood was collected at sampling time point for each blood sample. After anticoagulation with heparin, the blood was centrifuged at 5500 rpm for 10 mins. 60 μL of the supernatant was taken and put it into the refrigerator at −80° C. for waiting for testing.
Tumour sample collection: 200-300 mg of each tumor tissue was taken. The tumor weight was marked, quickly freezed in liquid nitrogen and placed into a refrigerator at −80° C. for waiting for testing.
Tumour sample processing: pure water was added into the tumor sample according to a ratio of […] between the weight of the tumor sample and the volume of pure water and then it was homogenized. The homogenate was stored at −90° C. to −60° C. until the sample was analyzed. After 5 μL of acetonitrile/water (v/v=1:1) was added into 50 μL of tumor sample homogenate, 200 μL of acetonitrile (containing Dexamethasone 100 ng/ml as internal standard, or containing Verapamil 2 ng/ml as internal standard) was added. After protein precipitation, the resulting mixture was vortexed for 2 mins at 4° C. with 4600 g, and then centrifuged for 15 mins to obtain the supernatant. 100 μL of the supernatant was taken and added into 200 μL of deionized water. 5500 LC/MS/MS analyser was used for sample injection and analysis, after vortexing for homogeneity. The conditions for chromatographic separation and mass spectrometric analysis were as follows: […]

CSC[C@@H](C)Nc1cc(NC(=O)N2CCCc3cc(CN4CCN(C)CC4=O)c(C=O)nc32)ncc1C#N [Compound 4, (R)—N-(5-Cyano-4-((1-(methylthio)propan-2-yl)amino)pyridin-2-yl)-7-formyl-6-((4-methyl-2-oxopiperazin-1-yl)methyl)-3,4-dihydro-1,8-naphthyridine-1 (2H)-carboxamide]
content in tumor tissue relative to the reference compound (Hep3B model, 4 h or 6 h): more than 15 times
AUC(0-inf) (Hep3B model): 3360 ng·h/mL
Cmax (Hep3B model): 1020 ng/mL
Tmax (Hep3B model): 2 h
half-life (Hep3B model): 1.48 h
AUC(0-t) (Hep3B model): 3020 ng·h/mL
AUC(0-inf) (SNU878 model): 4260 ng·h/mL
Cmax (SNU878 model): 1230 ng/mL
Tmax (SNU878 model): 1 h
half-life (SNU878 model): 2.3 h
AUC(0-t) (SNU878 model): 3530 ng·h/mL
concentration at 4 h (Hep3B model): 1210 ng/g
concentration at 6 h (Hep3B model, 6 h): 673 ng/g
concentration at 4 h (SNU878 model): 2340 ng/g
concentration at 6 h (SNU878 model, 6 h): 1950 ng/g
content in tumor tissue relative to the reference compound (SNU878 model, 6 h): about twice
